From US20190134039A1, “ANTIVIRAL JAK INHIBITORS USEFUL IN TREATING OR PREVENTING RETROVIRAL AND OTHER VIRAL INFECTIONS” (EMORY UNIVERSITY, priority 2011, published 2019)
“Also recorded” adds a separate entry of the source. Read-outs that look alike come from different tables or passages of the source.

Experiments:
HIV-1 containing M184V = assay: microbe, parasite or virus in culture; type: cell-based; conditions: Human immunodeficiency virus 1, Lymphocyte
wild-type HIV-1xxLAI = assay: Antiviral potency in primary human lymphocytes, wild type; type: cell-based; conditions: Human immunodeficiency virus 1, Lymphocyte; xxLAI; primary human lymphocytes; read-out: EC90
latent HIV-1 [1] = assay: Reactivation of latent HIV-1 in memory CD4+ T cells from ART treated aviremic donors; type: cell-based; conditions: CD4 T cells from HIV-infected individuals; alone and in the presence of HAART
Protocol: (§1) FIGS. 11 A-E are graphicals showing that Jak inhibitors reduce frequency of cells harboring integrated viral DNA and IL-15-induced reactivation of latent HIV-1 in CD4 T cells. CD4 T cells were isolated from viremic donors and incubated with CD3/CD28 plus 0.01, 0.1, 1.0 or 10 μM of Jak inhibitors with or without EC99 of ART (180 nM zidovudine, 100 nM efavirenz, 200 nM Raltegravir) (A and B). After six days, integrated viral DNA was quantified using ultra sensitive Alu PCR versus DMSO controls (n=5). 0.01 μM represents the average of all assays completed using % DMSO equivalent to Jak inhibitor concentrations. Error bars represent S.E.M. and statistical significance determined by two-way ANOVA followed by Sidak's multiple comparison post-test: *p<0.05, **p<0.01, ***p<0.001 and ****p<0.0001 for A and B. In panel C-E, memory CD4^+ T cells were isolated from ART treated aviremic donors (n=3), activated with 10 ng/ml IL-15 (panel D) or CD3/CD28 (panel E) and maintained with or without 1 μM ruxolitinib in the presence of ART. Six days post reactivation, extracellular viral RNA copies were quantified by qRT-PCR (*p<0.01, one-way ANOVA).

pSTAT1 = conditions: primary CD4+T lymphocytes
HIV-1 containing L74V = assay: microbe, parasite or virus in culture; type: cell-based; conditions: Human immunodeficiency virus 1, Lymphocyte
pSTAT3 [2] = assay: cells; conditions: read-out: EC90 pSTAT3
[3] = tested on: PHA stimulated primary human lymphocytes; assay: Proliferation and viability of PHA stimulated primary human lymphocytes; type: cell-based; conditions: 5 days, all concentrations
Protocol: (§2) The effect of various Jak inhibitors on proliferation and viability of PHA or PHA+IL-2 stimulated primary human lymphocytes was evaluated using the techniques described above.
(§3) For all experiments, cells were incubated with media alone or drug-containing medium for 5 days prior to assessment of cell count and viability. Data are mean and standard deviations for at least three independent experiments conducted with at least 4 pooled donors, and duplicates within each experiment.

[4] = tested on: PHA+IL-2 stimulated primary human lymphocytes; assay: Proliferation and viability of PHA+IL-2 stimulated primary human lymphocytes; type: cell-based; conditions: PHA+IL-2 stimulated lymphocytes, 5 days
Protocol: as §2, §3

pSTAT5 = conditions: primary CD4+T lymphocytes
[5] = tested on: HIV-1 containing A62V/V75I/F77L/F116Y/Q151M; assay: microbe, parasite or virus in culture; type: cell-based; conditions: Human immunodeficiency virus 1, Lymphocyte
[6] = tested on: various NRTI-resistant HIV-1; assay: Antiviral potency against various NRTI-resistant HIV-1 in primary human lymphocytes (summary over strains); type: cell-based; conditions: K65R, M184V, L74V, A62V/V75I/F77L/F116Y/Q151M, 4xAZT
Description: FI50 is the ratio of EC50 against mutant virus:EC50 against wild-type xxLAI. FI90 is the ratio of EC90 against mutant virus:EC90 against wild-type xxLAI.

HIV-2 = assay: microbe, parasite or virus in culture; conditions: Human immunodeficiency virus 2, PBMC, read-out: Anti-HIV-2 EC90 in acutely infected PBM cells
[7] = tested on: acute infection in rhesus macaque lymphocytes; assay: cells; conditions: Macaca mulatta, Lymphocyte, read-out: Acute infection in rhesus macaque lymphocytes EC90
Description: (§4) The data (Shown in Table 5 below) are mean and standard deviations from at least three independent experiments.

[8] = tested on: acute infection in rhesus macaque macrophages; assay: cells; conditions: read-out: Acute infection in rhesus macaque macrophages EC90
Description: as §4

integrated viral DNA = assay: Integrated viral DNA in CD4 T cells from viremic donors (Alu PCR); type: cell-based; conditions: CD4 T cells from HIV-infected individuals; alone and in the presence of HAART
Protocol: as §1

activated PBM cells = type: cell-based, human
Description: The data is shown in FIG. 2, in terms of total cell number (10^6 cells) versus aM drug in medium.
The data is shown in FIG. 3, in terms of cell viability (%) versus aM drug in medium.

pSTAT3 [9] = conditions: primary CD4+T lymphocytes
[10] = tested on: HIV-1 containing 4xAZT (D67N/K70R/T215Y/K219Q); assay: microbe, parasite or virus in culture; type: cell-based; conditions: Human immunodeficiency virus 1, Lymphocyte
HIV-1LAI = assay: microbe, parasite or virus in culture
Description: PBM cells were isolated as follows: Lymphocytes were isolated from buffy coats derived from healthy donors obtained from Life South Laboratories (Dunwoody, Ga.). Activated lymphocytes were maintained for 72 hrs in medium that was supplemented with […] phytohemagglutinin (PHA) (Cape Cod associates, East Falmouth, Mass.). Media was comprised of RPMI media supplemented with 20% fetal calf serum, 1% penicillin/streptomyocin and 2% L-glutamine (Sigma Aldrich, San Jose, Calif.).
PBM cell infections: Testing was performed in duplicate with at least 3 independent assays. Cells were incubated in RPMI medium (HyClone, Logan, Utah) containing HR-IL2 (26.5 units/ml) and 20% fetal calf serum. Infections were performed by adding HIV-1LA1 followed by a further incubation at 37° C., 5% CO2, 1 hr prior to addition of drugs. Assays were performed in 24 well plates (BD Biosciences, Franklin Lakes, N.J.). One ml of supernatant was collected after 5 days in culture and then centrifuged at 12,000 rpm for 2 hr at 4° C. in a Jouan Br43i (Thermo Electron Corp., Marietta, Ohio). The product of the RT assay was quantified using a Packard harvester and direct beta counter and the data were analyzed as previously described (Schinazi et al, 1990).

HIV-1BaL = assay: microbe, parasite or virus in culture
Protocol: Macrophages were isolated as follows: Monocytes were isolated from buffy coats of HIV-1 negative, HBV/HCV-negative donors with density gradient centrifugation coupled with enrichment for CD14+ monocytes with Rosette Sep antibody cocktail (Stem Cell Technologies, Vancouver, British Columbia). Cells were seeded at a concentration of 1.0×10^6 cells/well for 1 hr at 37° C. and 5% CO2 to confer plastic adherence prior to repeated washes with 1×PBS. Macrophages were maintained in medium containing 100 U/ml macrophage colony-stimulating factor (m-CSF, R&D Systems, Minneapolis, Minn.), supplemented with 20% fetal calf serum (Atlanta Biologicals, Lawrenceville, Ga.) and 1% penicillin/streptomyocin (Invitrogen, Carlsbad, Calif.) for 7 days (37° C., 5% CO2) prior to testing.
Macrophage infections: Macrophages were cultured as described above for 7 days. […] 4 hrs after infection, virus was removed and drug-containing medium was returned to the cultures. Supernatants were collected on day 7 post-infection and HIV-1 p24 was quantified via ELISA (Zeptometrix Corporation, Buffalo, N.Y.). EC50 analysis was performed using CalcuSyn software (BioSoft Corporation, Cambridge, UK).

HIV-1 containing K65R = assay: microbe, parasite or virus in culture; type: cell-based; conditions: Human immunodeficiency virus 1, Lymphocyte
latent HIV-1 [11] = assay: Reactivation of latent HIV-1 in primary human macrophages (PMA, p24 ELISA); type: cell-based; conditions: drug applied during reactivation, removed thereafter, within 72 hr post reactivation

C[C@@H]1CCN(C(=O)CC#N)C[C@@H]1N(C)c1ncnc2[nH]ccc12 [Tofacitinib, 3-{(3R,4R)-4 methyl-3-[methyl-(7H-pyrrolo[2,3-d]pyrimidin-4-yl)-amino]-piperidin-1-yl}-3-oxo-propionitrile]
EC90 (HIV-1 containing M184V): 27.1 ± 15.7 µM
EC90 (wild-type HIV-1xxLAI): 28.4 ± 16.7 µM
reservoir reactivation (latent HIV-1 [1]): block reservoir reactivation
concentrations inhibiting IFN-α induced phosphorylation of STAT1 (pSTAT1): sub-micromolar
EC90 (HIV-1 containing L74V): 47.7 ± 45.3 µM
EC90 (pSTAT3 [2]): 0.9 µM
proliferation versus cells exposed to media alone [3]: not significantly different
viability versus cells exposed to media alone [3]: not significantly different
proliferation versus cells exposed to media alone ([4]; 1.0 μM): significantly inhibited
viability versus cells exposed to media alone ([4]; all concentrations): not significantly different
concentrations inhibiting IFN-α induced phosphorylation of STAT5 (pSTAT5): sub-micromolar
EC90 [5]: 8.9 ± 8.8 µM
FI50 or FI90 versus wild type HIV-1xxLAI [6]: not significant increase; also recorded: did not display a significant difference
antiviral potency for wild-type HIV-1xxLAI versus NRTI-resistant HIV-1 [6]: not significantly different
EC90 (HIV-2): 1.8 ± 1.1 µM
EC90 [7]: 2.9 ± 0.5 µM
EC90 ([8]; Macaca mulatta, Macrophage): ~4 µM
EC90 [8]: 3.1 ± 0.9 µM
size of the HIV reservoir (integrated viral DNA): decay the size of the HIV reservoir
total cell proliferation (total cell number) (activated PBM cells): do not affect total cell proliferation
total cell viability (activated PBM cells): do not affect total cell viability
concentrations inhibiting IFN-α induced phosphorylation of STAT3 (pSTAT3 [9]): sub-micromolar
EC90 [10]: 17.1 ± 4.5 µM
EC90 (HIV-1LAI; Human immunodeficiency virus 1, PBMC, in Homo sapiens, read-out: Anti-HIV-1 EC90 in acutely infected PBM cells): 17.1 ± 15.1 µM
inhibition of HIV-1 replication (HIV-1LAI; PBM cells): sub-micromolar
EC90 (HIV-1BaL; Human immunodeficiency virus 1, Macrophage, in Homo sapiens, read-out: Anti-HIV-1 EC90 in acutely infected MΦ): 2.9 ± 1.4 µM
inhibition of HIV-1 replication (HIV-1BaL; MØ cells): sub-micromolar
EC90 (HIV-1 containing K65R): 81.2 ± 26.7 µM
percent inhibition of reactivation of latent HIV-1 versus no drug control (latent HIV-1 [11]): ~40%
